Values joined by “and” are separate entries in the source; they are usually repeats but may differ in a detail not shown here. Identical values can stand only once.
Columns and labels:
[1] = Plasma pharmacokinetics of Compound I after single intraperitoneal dose in Swiss-Webster mice (Example 1); format: in vivo; details: mouse plasma, individual animals
Experimental: Example 1 provides a summary of three pharmacokinetic studies Compound I conducted in Swiss-webster mice. The pharmacokinetics of 5 mg/kg, 15 mg/kg and 50 mg/kg of Compound I via the intraperitoneal route were discussed.
Compound I was prepared using the method described in the U.S. Publication 2012/0040932 A1. 100 mg of Compound I was dissolved in 30% 1N NaOH to ˜pH 5.0 as a stock solution. Compound I was further diluted in 0.9% saline to achieve target concentrations.
The specifications for animals used on this study were as follows: • Species: Mouse • Strain: CFW (Swiss) • Gender: Female • Source: Harlan Laboratories (Livermore, Calif.) • Number of Animals: 33 for each dose • Body Weight Range: 18-22 g at the start of the study
After acclimation, mice were administered a single intraperitoneal dose of Compound I at 5, 15, and 50 mg/kg. Groups of three mice were sacrificed at 0.08, 0.16, 0.25, 0.33, 0.5, 0.75, 1.0, 2.0, 3.0, and 4.0 h after dosing. Blood samples (one sample per animal) were collected by cardiac puncture in a heparin containing tube. Blood samples were centrifuged within 5 min of collection at 12000 g for 5 min to obtain plasma. The plasma samples were stored on −80° C. until analyzed.
Compound I standard curves were prepared in plasma from 0.1 to 100 μg/mL. 50 μl aliquots of sample were placed in 1.5 mL microcentrifuge tubes. 20 μl of Compound II (10 μg/mL) was added as internal standard to each sample or standard. 20 μl of 30% trichloroacetic acid was then added to each sample or standard. The samples were mixed using a vortex mixer centrifuged for 10 min at 15,000 RPM using a tabletop centrifuge. The supernatant (approx. […]) was removed and added to 100 μl of water in a 96-well plate. The samples were mixed again using a vortex mixer. 10 μl of each sample was injected onto an HPLC-MS for quantification.
The HPLC-MS conditions for plasma analysis are as follows: • Column: Phenomenex Fusion-RP or equivalent reversed-phase column, 5 um, 50×2 mm. • Flow rate: 0.6 mL/min. • Mobile phase A: 0.1% formic acid in water. • Mobile phase B: 0.1% formic acid in acetonitrile. • Gradient: 5-60% B in 1.5 min. • Mass spectrometer: Negative ion mode with electrospray ionization. • MS/MS: Compound I-Q1-m/e=296, Q3-m/e=234. • Compound II-Q1-m/e=331, Q3-m/e=201.
Plasma concentrations were fit using a one compartment IV infusion model (WinNonlinVersion 5.3, Pharsight Corp, and Mountain View, Calif.).

[2] = test system: KPC-producing strains; test: Time-kill assays of Biapenem with Compound I (Example 4); format: cell-based, Enterobacteriaceae; details: KPC-producing strains (Biapenem MICs of 16-32 ug/ml)
Experimental: The evaluation of Compound I in combination with the carbapenem antibiotic Biapenem against multi-drug resistant strains of Enterobacteriaceae, including those producing serine carbapenemases were also conducted. Antibiotic potentiation activity of Compound I was studied in checkerboard MIC experiments and time-kill assays. The MICs of Biapenem were determined alone or in combination with Compound I added at fixed concentrations between 0.5 and 16 ug/ml) against characterized and engineered isolates producing various beta-lactamases, as well as in geographically diverse panels of multi-drug resistant strains of Enterobacteriaceae (including strains that express the most relevant beta-lactamases).

[3] = Single-dose pharmacokinetics of Compound I, intravenous 30-minute infusion in Cynomologus monkeys (Example 5); format: in vivo; details: Monkey; for half-life / AUC / Cmax: in vivo
Experimental: Example 5 provides the single-dose pharmacokinetic studies of Compound I inpreclinical species, including intraperitoneal administration to Swiss-Webster mice and intravaneous administration to Sprague-Dawley rats, Beagle dogs, and Cynomologus monkeys.
Intravaneous doses of Compound I were administered as 30-minute infusions. The pharmacokinetics of Compound I were also studied with coadministration of the carbapenem, Biapenem. Compound I concentrations were determined using an LC-MS detection method.

In the case of O=C(O)C[C@@H]1CC[C@H](NC(=O)Cc2cccs2)B(O)O1 [Compound I], the “Calc. Conc. (plasma concentration)” value ([1]; 5 mg/kg intraperitoneal, samples m.p. 9.x = 9th time point (3.0 h), 5 mg/kg) is reported as 0.0103 µg/mL and 0.0354 µg/mL and 0.00806 µg/mL, the “Calc. Conc. (plasma concentration)” value ([1]; 5 mg/kg intraperitoneal, samples m.p. 10.x = 10th time point (4.0 h), 5 mg/kg) is reported as 0.00577 µg/mL and 0.00418 µg/mL and the “Calc. Conc. (plasma concentration)” value ([1]; 15 mg/kg intraperitoneal, samples m.p. 1.x = 1st time point (0.08 h), 15 mg/kg) is reported as 9.67 µg/mL. The “Calc. Conc. (plasma concentration)” value ([1]; 15 mg/kg intraperitoneal, samples m.p. 2.x = 2nd time point (0.16 h), 15 mg/kg) was 8.58 µg/mL, the “Calc. Conc. (plasma concentration)” value ([1]; 15 mg/kg intraperitoneal, samples m.p. 3.x = 3rd time point (0.25 h), 15 mg/kg) was 9.53 µg/mL and 5.59 µg/mL and 14.3 µg/mL and the “Calc. Conc. (plasma concentration)” value ([1]; 15 mg/kg intraperitoneal, samples m.p. 4.x = 4th time point (0.33 h), 15 mg/kg) was 5.6 µg/mL and 12.3 µg/mL and 4.44 µg/mL. The “Calc. Conc. (plasma concentration)” value ([1]; 15 mg/kg intraperitoneal, samples m.p. 5.x = 5th time point (0.5 h), 15 mg/kg) was 4.07 µg/mL and 3.52 µg/mL and 7.05 µg/mL, the “Calc. Conc. (plasma concentration)” value ([1]; 15 mg/kg intraperitoneal, samples m.p. 6.x = 6th time point (0.75 h), 15 mg/kg) was 0.0261 µg/mL and 3.72 µg/mL and 2.99 µg/mL and the “Calc. Conc. (plasma concentration)” value ([1]; 15 mg/kg intraperitoneal, samples m.p. 7.x = 7th time point (1.0 h), 15 mg/kg) was 0.534 µg/mL and 2.28 µg/mL and 1.61 µg/mL. For the same compound, the “Calc. Conc. (plasma concentration)” value ([1]; 15 mg/kg intraperitoneal, samples m.p. 8.x = 8th time point (2.0 h), 15 mg/kg) was 0.145 µg/mL and 0.0926 µg/mL, the “Calc. Conc. (plasma concentration)” value ([1]; 15 mg/kg intraperitoneal, samples m.p. 9.x = 9th time point (3.0 h), 15 mg/kg) was <0 ug/mL (2×) and 0.0178 ug/mL and the “Calc. Conc. (plasma concentration)” value ([1]; 50 mg/kg intraperitoneal, samples m.p. 1.x = 1st time point (0.08 h), 50 mg/kg) was 39.4 µg/mL and 26.6 µg/mL. For the same compound, the “Calc. Conc. (plasma concentration)” value ([1]; 50 mg/kg intraperitoneal, samples m.p. 2.x = 2nd time point (0.16 h), 5x dil., 50 mg/kg) was 64.7 µg/mL and 57.7 µg/mL and 58.9 µg/mL, the “Calc. Conc. (plasma concentration)” value ([1]; 50 mg/kg intraperitoneal, samples m.p. 3.x = 3rd time point (0.25 h), 5x dil., 50 mg/kg) was 56.8 µg/mL and 61.7 µg/mL and 64.2 µg/mL and the “Calc. Conc. (plasma concentration)” value ([1]; 50 mg/kg intraperitoneal, samples m.p. 4.x = 4th time point (0.33 h), 50 mg/kg) was 42.1 µg/mL and 43.6 µg/mL and 135 µg/mL. The “Calc. Conc. (plasma concentration)” value ([1]; 50 mg/kg intraperitoneal, samples m.p. 5.x = 5th time point (0.5 h), 50 mg/kg) was 34.7 µg/mL and 27.0 µg/mL and 4.06 µg/mL, the “Calc. Conc. (plasma concentration)” value ([1]; 50 mg/kg intraperitoneal, samples m.p. 6.x = 6th time point (0.75 h), 50 mg/kg) was 11.4 µg/mL and 15.0 µg/mL and the “Calc. Conc. (plasma concentration)” value ([1]; 50 mg/kg intraperitoneal, samples m.p. 7.x = 7th time point (1.0 h), 50 mg/kg) was 9.26 µg/mL and 2.33 µg/mL and 1.40 µg/mL. For the same compound, the “Calc. Conc. (plasma concentration)” value ([1]; 50 mg/kg intraperitoneal, samples m.p. 8.x = 8th time point (2.0 h), 50 mg/kg) was 0.555 µg/mL and 1.30 µg/mL and 0.582 µg/mL, the “Calc. Conc. (plasma concentration)” value ([1]; 50 mg/kg intraperitoneal, samples m.p. 9.x = 9th time point (3.0 h), 50 mg/kg) was 0.120 µg/mL and 0.105 µg/mL and the “Calc. Conc. (plasma concentration)” value ([1]; 50 mg/kg intraperitoneal, samples m.p. 10.x = 10th time point (4.0 h), 50 mg/kg) was 0.0471 µg/mL and 0.143 µg/mL and 0.199 µg/mL. For the same compound, the “Time-kill: effect of the addition of Compound I to Biapenem” value [2] was “significant bactericidal synergism”, the “CL or CL/F” value ([3]; 2 mg/kg IV) was 8.5 ± 1.2 mL/min/kg and the “CL or CL/F” value ([3]; 6 mg/kg IV) was 8.33 ± 1.3 mL/min/kg. The “CL or CL/F” value ([3]; 20 mg/kg IV) was 8 ± 0.5 mL/min/kg, the half-life ([3]; cynomolgus, 6 mg/kg IV) was 33 ± 7.2 min and the AUC ([3]; cynomolgus, 20 mg/kg IV) was 41800 ± 2530 ng·h/mL. It also gave a Cmax ([3]; cynomolgus, 20 mg/kg IV) of 54900 ± 3320 ng/mL, a half-life ([3]; cynomolgus, 20 mg/kg IV) of 113 ± 104 min and an AUC ([3]; 2 mg/kg IV) of 3960 ± 510 ng·h/mL. The Cmax ([3]; 2 mg/kg IV) was 5350 ± 280 ng/mL, the half-life ([3]; 2 mg/kg IV) was 34.2 ± 1.8 min and the AUC ([3]; 6 mg/kg IV) was 12200 ± 1890 ng·h/mL. It also gave a Cmax ([3]; 6 mg/kg IV) of 17000 ± 1680 ng/mL.

Source: US11007206B2, “Cyclic boronic acid ester derivatives and therapeutic uses thereof” (Melinta Subsidiary Corp., priority 2012, dated 2021)
